“Also recorded” adds a separate entry of the source.
Test system: human influenza A virus X-113 reassortant vaccine strain (hemagglutinin and neuraminidase of A/Texas/36/91, H1N1)
Assay type: binding

Question: For “NeuAcα6Galβ4GlcNAcβ3Galβ4GlcβCer [S-6-PG]”, which “Binding of human influenza virus HRP conjugate to glycolipid on TLC plate” value (“Binding” below) is on record?
Answer: did not show binding; also recorded: no binding at all

Question: sulfatide was tested. Which “Binding” value did it give?
Answer: probably unspecific interaction

Question: With NeuAcα3Galβ4GlcβCer [GM3] as the substance, how does the “Binding” value read?
Answer: did not see binding

Question: With “NeuAcα6Galβ4GlcNAcβ3Galβ4GlcNAcβ3Galβ4GlcβCer [7-sugar NeuAc-6-neolacto ganglioside]” as the substance, how does the “Binding” value read?
Answer: did not show binding; also recorded: no binding at all

Question: Which “Binding” value does the source give for NeuAcα3Galβ4(Fucα3)GlcNAcβ- here?
Answer: excluded; also recorded: no binding

Question: How did the “Binding” value turn out when “NeuAcα3Galβ4GlcNAcβ3Galβ4(Fucα3)GlcNAcβ- [VIM-2]” was run?
Answer: excluded; also recorded: no binding
